From US11498928B2, “Macrocyclic spiroethers as Mcl-1 inhibitors” (ASCENTAGE PHARMA (SUZHOU) CO., LTD., priority 2019, dated 2022)

How the values were obtained:
[1] = target: T1, Mcl-1 protein (residues 171-323) (Homo sapiens, UniProt Q07820); test: Inhibition of Mcl-1 by fluorescence polarization (FP) competitive binding assay with FAM-Bid tracer; conditions: 2 nM FAM-Bid, 20 nM Mcl-1, 30 min
T1 construct: Tag-free Mcl-1 protein (residues 171-323) was used in the FP assay
Procedure: Inhibition of Mcl-1 by Fluorescence Polarization (FP) Assay.
The relative binding potency of representative Compounds of the Disclosure was determined by a fluorescence polarization (FP) assay (Long et al, BMC Biotechnology 13:45 (2013)). The method used a fluorescein labelled peptide (FAM-Bid) which binds to the Mcl-1 protein leading to an increased anisotropy measured in milli-polarization (mP) values using a plate reader. […] Tag-free Mcl-1 protein (residues 171-323) was used in the FP assay (Mady et al, Scientific Reports 8: 10210-10210 (2018); Yang et al, ACS Med. Chem. Lett. 3:308-312 (2012)).
A 10-points serial dilution of each compound was prepared in DMSO and 5 μL solution was transferred into flat bottomed, 96-well back plate (final DMSO concentration 5%). 120 μL of Buffer (PBS, 0.01% BGG (Sigma Cat. #SRE0011), 0.01% Triton X-100), containing the Fluorescein labelled peptide (Final concentration 2 nM) and Mcl-1 protein (final concentration 20 nM) was then added. Assay plates were incubated 30 mins at room temperature with gentle shaking before FP was measured on a Biotek Synergy 1MF reader (Ex. 485 nm, Em. 528 nm, Cut off 510 nm) and mP calculated. The binding of increasing doses of test compounds was expressed as a percentage reduction in mP compared to a window established between 5% DMSO only and 100% inhibition controls (no Mcl-1 protein). 10-points dose response curves were plotted with GraphPad software using Sigmoidal Dose-Response Model and the IC50 values were determined by nonlinear regression fitting of the competition curves. Cell Viability Assay (NCI-H929 cells)

[2] = tested on: OPM-2 cells; test: Cell viability assay (OPM-2 cells), CCK-8; format: cell-based; conditions: Homo sapiens, OPM-2, 24 h, 5% FBS
Procedure: OPM-2 cells were obtained from Deutsche Sammlung von Mikroorganismen and Zellkulturen GmbH (DSMZ). Cells were maintained in the recommended culture medium with 10% FBS at 37° C. and an atmosphere of 5% CO2.
The effect of representative Compounds of the Disclosure on cell viability was determined using Cell Counting Kit-8 (CCK-8) assay (Shanghai Life iLab Bio Technology) according to the manufacturer's instructions. Each tested compound was serially diluted in culture medium, 100 μL of the compound dilution was added into 96-well plates. 100 μL of an OPM-2 cell suspension (20000 cells/well) in culture medium were seeded into the corresponding well of the plate and the cells were incubated at 37° C. in an atmosphere of 5% CO2 for 24 hours. In the next day, 20 μL of CCK-8 solution was added to each well of the plate and incubated for 4 hours.
The plates were read at 450 nm on the microplate spectrophotometer (SpectraMax plus 384, Molecular devices). The readings were normalized to the vehicle cells, and the IC50 was calculated by nonlinear regression analysis using GraphPad Prism 6 software.

[3] = tested on: NCI-H929 cells; test: Cell viability assay (NCI-H929 cells), CCK-8; format: cell-based; conditions: Homo sapiens, NCI-H929, 24 h, 5% FBS
Procedure: NCI-H929 cells were obtained from American Type Culture Collection (ATCC). Cells were maintained in the recommended culture medium (RPMI 1640) with 10% FBS and 0.05 mM BME at 37° C. and an atmosphere of 5% CO2.
The effect of Compounds on cell viability was determined using Cell Counting Kit-8 (CCK-8) assay according to the manufacturer's instructions. 95 μL of NCI-H929 cell suspension (20000 cells/well) in culture medium were seeded into 96-well plates and cultured 4 hrs. Each tested compound was serially diluted in DMSO, then 5 μL of the compound or DMSO was diluted in 95 μL medium once more. At last, 5 μL of the compound dilution was added to the corresponding well of the cell plate. After the addition of the tested compound, the cells were incubated at 37° C. in an atmosphere of 5% CO2 for 24 hrs. At the end, 10 μL of CCK-8 solution was added to each well of the plate and incubated for 1-4 hours. The plates were read at 450 nm on the microplate reader (BioTek Synergy 1MF). The readings were normalized to the vehicle cells, and the IC50 was calculated by nonlinear regression analysis using GraphPad Prism 6 software. Cell Viability Assay (OPM-2 cells)

T1 sequence (Q07820 171-323): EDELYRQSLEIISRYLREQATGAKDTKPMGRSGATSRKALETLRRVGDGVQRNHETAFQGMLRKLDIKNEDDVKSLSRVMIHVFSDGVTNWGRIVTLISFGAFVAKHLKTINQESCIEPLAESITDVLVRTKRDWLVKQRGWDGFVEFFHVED

Row | Structure (SMILES) | IC50 [1] [nM] | IC50 [3] [nM] | IC50 [2] [nM]
1 | CO[C@H]1C2=C[C@@H](C2)[C@H](C)[C@@H](C)S(=O)(=O)NC(=O)c2ccc3c(c2)N(C[C@@H]2CC[C@H]21)C[C@@]1(CCCc2c1cc(F)c(Cl)c2F)CO3 [compound 25] | 420 | 3400 | 2500
2 | CO[C@H]1C2=CC3(C2)CN(C3)S(=O)(=O)NC(=O)c2ccc3c(c2)N(C[C@@H]2CC[C@H]21)C[C@@]1(CCCc2cc(Cl)ccc21)CO3 [compound 31, (1S,16′R,16a′R,18a′R)-6-chloro-16′-methoxy-3,4,16′,16a′,17′,18′,18a′,19′-octahydro-1′H,2H,3′H,12′H-spiro[naphthalene-1,2′-[5,7]etheno[11,13:13,15]dimethanocyclobuta[i][1,4]oxazepino[3,4-f][1]thia[2,7,16]triazacyclohexadecin]-8′(9′H)-one 10′,10′-dioxide] | 11 | 9700 | 9280
3 | CO[C@@]1(CN2CCN3CCCC[C@H]3C2)C2=C[C@@H](C2)[C@H](C)[C@@H](C)S(=O)(=O)NC(=O)c2ccc3c(c2)N(C[C@@H]2CC[C@H]21)C[C@@]1(CCCc2c1ccc(Cl)c2F)CO3 [compound 32, (1S,11′R,12′S,13′R,16′R,16a′R,18a′R,E)-6-chloro-5-fluoro-16′-methoxy-11′,12′-dimethyl-16′-(((S)-octahydro-2H-pyrido[1,2-a]pyrazin-2-yl)methyl)-3,4,12′,13′,16′,16a′,17′,18′,18a′,19′-decahydro-1′H,2H,3′H,11′H-spiro[naphthalene-1,2′-[5,7]etheno[13,15]methanocyclobuta[i][1,4]oxazepino[3,4-f][1]thia[2,7]diazacyclohexadecin]-8′(9′H)-one 10′,10′-dioxide] | 13 | 10 | 29
4 | CO[C@@]1(CN2CCN(C3CCOCC3)CC2)C2=C[C@@H](C2)[C@H](C)[C@@H](C)S(=O)(=O)NC(=O)c2ccc3c(c2)N(C[C@@H]2CC[C@H]21)C[C@@]1(CCCc2c1ccc(Cl)c2F)CO3 [compound 36] | 13 | 4.4 | 35
5 | CO[C@@]1(CN2CCN(S(C)(=O)=O)CC2)C2=C[C@@H](C2)[C@H](C)[C@@H](C)S(=O)(=O)NC(=O)c2ccc3c(c2)N(C[C@@H]2CC[C@H]21)C[C@@]1(CCCc2c1ccc(Cl)c2F)CO3 [compound 38, (1S,11′R,12′S,13′R,16′R,16a′R,18a′R,E)-6-chloro-5-fluoro-16′-methoxy-1′,12′-dimethyl-16′-((4-(methylsulfonyl)piperazin-1-yl)methyl)-3,4,12′,13′,16′,16a′,17′,18′,18a′,19′-decahydro-1′H,2H,3′H,11′H-spiro[naphthalene-1,2′-[5,7]etheno[13,15]methanocyclobuta[i][1,4]oxazepino[3,4-f][1]thia[2,7]diazacyclohexadecin]-8′(9′H)-one 10′,10′-dioxide] | 15 | 50 | 30

Further lines, with some results ahead:

Row | IC50 [1] [nM] | IC50 [3] [nM] | Structure (SMILES) | IC50 [2] [nM]
6 | 16 | 5500 | CO[C@@H]1C2CC(C2)[C@H](C)N(C)S(=O)(=O)NC(=O)c2ccc3c(c2)N(C[C@@H]2CC[C@H]21)C[C@@]1(CCCc2cc(Cl)ccc21)CO3 [Cpd. No. 29, (1S,12′S,16′R,16a′R,18a′R)-6-chloro-16′-methoxy-11′,12′-dimethyl-3,4,12′,13′,14′,15′,16′,16a′,17′,18′,18a′,19′-dodecahydro-1′H,2H,3′H,11′H-spiro[naphthalene-1,2′-[5,7]etheno[13,15]methanocyclobuta[i][1,4]oxazepino[3,4-f][1]thia[2,7,16]triazacyclohexadecin]-8′(9′H)-one 10′,10′-dioxide] | 5210
7 | 8 | 3000 | CO[C@H]1C2CC(C2)[C@H](C)CS(=O)(=O)NC(=O)c2ccc3c(c2)N(C[C@@H]2CC[C@H]21)C[C@@]1(CCCc2cc(Cl)ccc21)CO3 [compound 3] | 5450
8 | 13 | 36 | CO[C@@]1(CN2CCOCC2)C2=C[C@@H](C2)[C@H](C)[C@@H](C)S(=O)(=O)NC(=O)c2ccc3c(c2)N(C[C@@H]2CC[C@H]21)C[C@@]1(CCCc2c1ccc(Cl)c2F)CO3 [compound 33, (1S,11′R,12′S,13′R,16′R,16a′R,18a′R,E)-6-chloro-5-fluoro-16′-methoxy-11′,12′-dimethyl-16′-(morpholinomethyl)-3,4,12′,13′,16′,16a′,17′,18′,18a′,19′-decahydro-1′H,2H,3′H,11′H-spiro[naphthalene-1,2′-[5,7]etheno[13,15]methanocyclobuta[i][1,4]oxazepino[3,4-f][1]thia[2,7]diazacyclohexadecin]-8′(9′H)-one 10′,10′-dioxide] | 52
9 | 9.7 | 16 | CO[C@@]1(CN2CCN3CCOC[C@H]3C2)C2=C[C@@H](C2)[C@H](C)[C@@H](C)S(=O)(=O)NC(=O)c2ccc3c(c2)N(C[C@@H]2CC[C@H]21)C[C@@]1(CCCc2c1ccc(Cl)c2F)CO3 [compound 34, (1S,11′R,12′S,13′R,16′R,16a′R,18a′R,E)-6-chloro-5-fluoro-16′-(((R)-hexahydropyrazino[2,1-c][1,4]oxazin-8(1H)-yl)methyl)-16′-methoxy-11′,12′-dimethyl-3,4,12′,13′,16′,16a′,17′,18′,18a′,19′-decahydro-1′H,2H,3′H,11′H-spiro[naphthalene-1,2′-[5,7]etheno[13,15]methanocyclobuta[i][1,4]oxazepino[3,4-f][1]thia[2,7]diazacyclohexadecin]-8′(9′H)-one 10′,10′-dioxide] | 35
10 | 14 | 2.4 | CO[C@@]1(CN2CCN(C)CC2)C2=C[C@@H](C2)[C@H](C)[C@@H](C)S(=O)(=O)NC(=O)c2ccc3c(c2)N(C[C@@H]2CC[C@H]21)C[C@@]1(CCCc2c1ccc(Cl)c2F)CO3 [compound 35, (1S,11′R,12′S,13′R,16′R,16a′R,18a′R,E)-6-chloro-5-fluoro-16′-methoxy-11′,12′-dimethyl-16′-((4-methylpiperazin-1-yl)methyl)-3,4,12′,13′,16′,16a′,17′,18′,18a′,19′-decahydro-1′H,2H,3′H, 11′H-spiro[naphthalene-1,2′-[5,7]etheno[13,15]methanocyclobuta[i][1,4]oxazepino[3,4-f][1]thia[2,7]diazacyclohexadecin]-8′(9′H)-one 10′,10′-dioxide] | 32
11 | 17 | 12 | CO[C@@]1(CN2CCC(N3CCOCC3)CC2)C2=C[C@@H](C2)[C@H](C)[C@@H](C)S(=O)(=O)NC(=O)c2ccc3c(c2)N(C[C@@H]2CC[C@H]21)C[C@@]1(CCCc2c1ccc(Cl)c2F)CO3 [compound 37, (1S,11′R,12′S,13′R,16′R,16a′R,18a′R,E)-6-chloro-5-fluoro-16′-methoxy-11′,12′-dimethyl-16′-((4-morpholinopiperidin-1-yl)methyl)-3,4,12′,13′,16′,16a′,17′,18′,18a′,19′-decahydro-1′H,2H,3′H, 11′H-spiro[naphthalene-1,2′-[5,7]etheno[13,15]methanocyclobuta[i][1,4]oxazepino[3,4-f][1]thia[2,7]diazacyclohexadecin]-8′(9′H)-one 10′,10′-dioxide] | 63
